Read-outs that look alike come from different tables or passages of the source.
What was measured:
[1] = Kinetic studies on the PFAA-Staudinger ligation with 1 by 1H NMR spectroscopy; details: reaction with 1, DMSO-d6, 2.5 mM, 25 °C
Protocol: The kinetics of the Staudinger ligation between 1 and 2a–2c (Scheme 1) were monitored by ^1H NMR spectroscopy, following spectral changes over time.
The kinetic experiments were carried out following a published protocol (Sundhoro et al. [2017]). […] Kinetic models were evaluated by non-linear fitting corresponding to first- and second-order rate laws in Prism 10 (GraphPad, San Diego, CA, USA) as expected for the Staudinger ligation. Fitting was carried out using kinetic models based on reagent decomposition (A) or product formation (P) as shown in the equations below, depending on signal clarity and the magnitude of ^1H NMR spectral changes over time:where [A] = concentration of reactant A at time t, [A]₀ = initial concentration of reactant A (at t = 0), [P] = concentration of product P at time t, [P]₀ = maximum possible product concentration, k = rate constant and t = time elapsed.

[2] = Stability of 2c under simulated radiolabeling conditions (HPLC); type: physicochemical; details: 60 nmol AlCl3, 1:1 0.17 M NaOAc (pH 4.5):EtOH, 30 min
Protocol: The analysis was carried out using a pentafluorophenyl (PFP) column (Kinetex 2.6 µm PFP 100 Å, LC Column 150 × 4.6 mm from Phenomenex, Torrance, CA, USA) and HPLC methods A and B (see SI). The Al^19F-complexes were isolated and analyzed using NMR and/or HRMS. The stability of 2c was also tested in the presence of 60 nmol AlCl3 in 1:1 (v/v) 0.17 M NaOAC (pH 4.5):EtOH, simulating the radiolabeling conditions.

[3] = cited from earlier work
Jurkat cells [4] = assay: Cell viability during flow cytometry workflow (automatic cell counter / 7-AAD); type: cell-based, Human
Protocol: (§1) After incubation, the cells for each condition were combined and washed twice with 5 mL of 1 × Dulbecco's phosphate-buffered saline (DPBS). The cell number and viability were determined using EVE™ automatic cell counter (NanoEnTek, Seoul, Korea). 1 × 10^6 cells were resuspended in 500 µL of a freshly prepared 1 × DPBS (pH 7.4) or 1 µM of phosphine-PEG3-biotin (Thermo Fisher Scientific, Waltham, MA, USA) in 1 × DPBS (n = 3), then transferred to 1.5-mL microtubes, and incubated at ambient temperature for 60 min on a rotating platform. Then, cells are washed twice with 1 × DPBS, resuspended in 100 µL of a freshly prepared solution of 1:200 streptavidin-fluorescein isothiocyanate (FITC) (0.1 μg, Thermo Fisher Scientific, Waltham, MA, USA) in 1 × DPBS, and incubated for 15 min in the dark on ice with mixing once manually in between. After the incubation, 400 µL of FACS (fluorescence-activated cell sorting) buffer (2% FBS in DPBS) was added followed by two washings with 500 µL of FACS buffer. During the washing step, the samples were centrifuged at 4 °C, […] for 5 min, the supernatant was removed, and the cells were resuspended in fresh buffer, followed by centrifugation. Lastly, cells were resuspended in 500 µL of FACS buffer and transferred to FACS tubes equipped with a 35 µm cell strainer cap. Dead and apoptotic cells were stained by adding 5 µL of 7-aminoactinomycin D (7-AAD) staining solution and incubating for 10 min at ambient temperature in the dark, followed by flow cytometry analysis using LSR Fortessa (BD Biosciences, Franklin Lake, NJ, USA). Unstained samples, samples stained only with streptavidin-FITC, and only with 7-AAD were used as controls. Data were analyzed using FlowJo software (FlowJo LLC, Ashland, OR, United States).

Jurkat cells [5] = assay: Flow cytometry of metabolic glycoengineering (phosphine-PEG3-biotin, streptavidin-FITC); type: cell-based, Human; details: 50 µM, 72 h, then 1 µM phosphine-PEG3-biotin
Protocol: Jurkat cells (5 × 10^5 cells in 1.5-mL complete medium per well) were seeded in a non-treated flat-bottom polystyrene 6-well plate (Avantor, Radnor, PA, USA) and incubated in triplicates (n = 3) with 50 μM of 1, 50 μM of Ac4ManNAz (Lumiprobe, Westminster, MD, USA) or 0.5% (v/v) DMSO in complete medium for 72 h in a cell incubator set at 37 °C with 5% CO2 and 95% relative humidity. After incubation, the cells for each condition were combined and washed twice with 5 mL of 1 × Dulbecco's phosphate-buffered saline (DPBS). The cell number and viability were determined using EVE™ automatic cell counter (NanoEnTek, Seoul, Korea). 1 × 10^6 cells were resuspended in 500 µL of a freshly prepared 1 × DPBS (pH 7.4) or 1 µM of phosphine-PEG3-biotin (Thermo Fisher Scientific, Waltham, MA, USA) in 1 × DPBS (n = 3), then transferred to 1.5-mL microtubes, and incubated at ambient temperature for 60 min on a rotating platform. […] After the incubation, 400 µL of FACS (fluorescence-activated cell sorting) buffer (2% FBS in DPBS) was added followed by two washings with 500 µL of FACS buffer. […] Data were analyzed using FlowJo software (FlowJo LLC, Ashland, OR, United States).

[6] = CyQUANT LDH Cytotoxicity Assay; type: cell-based; details: human, Jurkat T lymphoblasts (Clone E6-1), read-out: cell viability
Protocol: The in vitro cytotoxicity of 1 was assessed using the CyQUANT™ LDH Cytotoxicity Assay (Invitrogen, Waltham, MA, USA), which quantifies membrane damage via extracellular lactate dehydrogenase (LDH) release. Assay reagents (Lysis Buffer, Reaction Mixture, and Stop Solution) were prepared according to the manufacturer’s protocol. Human Jurkat T lymphoblasts (Clone E6-1, ATCC TIB-152™, Manassas, VA, USA) were suspended in complete medium and mixed (1:1) with 1 in complete medium to obtain final concentrations of 10, 20, 50, 125, and 250 μM containing 0.5% v/v DMSO vehicle. Positive control for cytotoxicity (maximum LDH; cells lysed with 10 × Lysis Buffer at 1:10 v/v, prepared before each time point), negative control for cytotoxicity (spontaneous LDH; 0.5% v/v DMSO in complete medium), and complete-medium and serum-free medium blanks (background) were included. Sample-containing and control cell suspensions were plates at a density of 14,000 cells per well in 280 μL on an opaque-walled, clear-bottom 96-well plate. Plates were incubated at 37 °C, 5% CO2 in a humidified incubator for 24, 48, and 72 h. All conditions were run in quadruplicate (n = 4). […] Absorbance was measured at 490 and 680 nm on a Synergy H1 multimode microplate reader (BioTek, Winooski, VT, USA). LDH signal was calculated as Abs490 – Abs680 (background-corrected).
% Cytotoxicity was determined as:

[7] = Cell viability during flow cytometry workflow (automatic cell counter / 7-AAD); type: cell-based, Human; details: human, Jurkat cells, 50 µM, 72 h
Protocol: as §1

## O=C(O)CN(CC(=O)O)CC(CCNC(=O)Cc1ccc(CN(CC(=O)O)[C@@H]2CCCC[C@H]2N(CC(=O)O)CC(=O)O)cc1)OC(=O)c1ccccc1P(c1ccccc1)c1ccccc1 (stereo partly drawn) [2a]
[1]
  second-order rate constant of PFAA-Staudinger ligation: 4.246 × 10^–4 M⁻1 s⁻1

## O=C(O)CN(CC(=O)O)[C@@H]1CCCC[C@H]1N(CC(=O)O)Cc1ccc(CC(=O)NCCNC(=O)c2ccccc2P(c2ccccc2)c2ccccc2)cc1 [2b]
[1]
  first-order rate constant of PFAA-Staudinger ligation: 5.434 × 10^–3 s⁻1

## O=C(O)CN(CC(=O)O)C1CCCCC1N(CC(=O)O)Cc1ccc(CC(=O)NC2CCC(CNC(=O)c3ccccc3P(c3ccccc3)c3ccccc3)CC2)cc1 (stereo not drawn) [2c]
[1]
  second-order rate constant of PFAA-Staudinger ligation: 4.071 × 10^–4 M⁻1 s⁻1
[2]
  stability under radiolabeling conditions without radioactivity (HPLC): negligible change

## SCP(c1ccccc1)c1ccccc1 [(diphenylphosphino)methanethiol]
[3]; DMF:D2O (6:1) ref Soellner et al. [2006]
  second-order rate constant, traceless Staudinger ligation: 7.7 × 10^–3 M^−1 s^−1

## CC(=O)OC[C@H]1OC(OC(C)=O)[C@@H](NC(=O)CN=[N+]=[N-])[C@@H](OC(C)=O)[C@@H]1OC(C)=O (stereo partly drawn) [Ac4ManNAz, Tetra-acetylated N-azidoacetylmannosamine, reference compound]
Jurkat cells [4]; 50 µM, 72 h
  cell viability after 72 h of incubation: 96%
Jurkat cells [4]; 50 µM, 72 h, after ligation and staining
  cell viability at the time of analysis: 79–82%
Jurkat cells [5]
  fluorescent labeling with streptavidin-FITC: observed

## [N-]=[N+]=NCc1ccccc1 [benzyl azide]
[3]; ACN:H2O (19:1) ref Lin et al. [2005]
  second-order rate constant, non-traceless Staudinger ligation: 2.5 × 10^–3 M^−1 s^−1

## CC(=O)OCC1OC(OC(C)=O)C(NC(=O)c2c(F)c(F)c(N=[N+]=[N-])c(F)c2F)C(OC(C)=O)C1OC(C)=O (stereo not drawn) [compound 1, tetra-acetylated PFAA-derivatized mannosamine]
[6]; concentrations up to 50 μM, 24, 48 and 72 h
  viability: > 80%
[6]; ≥ 125 μM, after 24 and 72 h of incubation
  viability at 125 µM: < 80%
Jurkat cells [4]; 100 µM, 72 h of incubation
  cell viability: reduced cell viability
[7]; after ligation and staining, read-out: cell viability at the time of analysis
  viability at 72 h, 50 µM: 77 to 80%
[7]; read-out: cell viability after 72 h of incubation
  viability at 72 h, 50 µM: 91%
Jurkat cells [5]
  fluorescent labeling with streptavidin-FITC: minimal/no signal

— paper PMC12705485, “Aluminum-[^18F]fluoride radiolabeling of triarylphosphines for cell labeling via the perfluoroaryl azide Staudinger ligation” (EJNMMI Radiopharmacy and Chemistry, 2025)
